Molecular target: T1, PAPD5 (Homo sapiens, UniProt Q8NDF8)
T1 construct: made in house
Assay: High-throughput luminescence (KinaseGlo) RNA polyadenylation assay, ATP utilization by recombinant PAPD5
Type: biochemical
Settings: Table 4 (entries of Table 5), ratio of luminescence with inhibitor to DMSO; for Fold-change determined at compound concentration 33 μM: 33 μM compound; for Fold-change determined at compound concentration 100 μM: 100 μM compound, higher = higher inhibition
Summary of the method: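 Recombinant PAPD5 polyadenylates an oligonucleotide substrate using ATP, and remaining ATP is read by KinaseGlo luciferase luminescence. Compound was incubated for 2 h at room temperature, then with luciferase for 10 min.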

T1 sequence (Q8NDF8 68-698 isoform Q8NDF8-5): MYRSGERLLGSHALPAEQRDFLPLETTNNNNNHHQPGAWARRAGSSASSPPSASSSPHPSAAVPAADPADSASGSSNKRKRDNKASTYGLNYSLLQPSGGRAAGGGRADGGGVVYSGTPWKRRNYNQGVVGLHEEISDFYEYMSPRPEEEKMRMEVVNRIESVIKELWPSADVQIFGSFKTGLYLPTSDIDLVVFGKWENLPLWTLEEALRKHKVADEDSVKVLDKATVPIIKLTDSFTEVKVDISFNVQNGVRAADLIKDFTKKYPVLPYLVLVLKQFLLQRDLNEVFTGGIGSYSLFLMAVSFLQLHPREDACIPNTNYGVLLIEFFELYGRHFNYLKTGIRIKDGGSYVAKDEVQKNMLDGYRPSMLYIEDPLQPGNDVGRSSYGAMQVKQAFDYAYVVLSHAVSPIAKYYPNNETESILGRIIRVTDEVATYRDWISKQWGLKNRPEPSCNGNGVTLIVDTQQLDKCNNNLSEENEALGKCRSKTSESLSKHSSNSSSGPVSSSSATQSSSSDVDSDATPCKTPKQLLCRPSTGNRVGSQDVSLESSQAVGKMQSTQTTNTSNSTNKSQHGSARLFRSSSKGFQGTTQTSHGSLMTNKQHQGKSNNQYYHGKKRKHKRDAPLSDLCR

Fold-change determined at compound concentration 33 μM | Fold-change determined at compound concentration 100 μM | Fold-change determined at compound concentration 10 μM (10 μM compound) | Structure (SMILES)
1.296 | 1.616 |  | Cc1c(C(=O)N2CCCC2)oc2c1-c1nn(CC(=O)NCc3ccccc3Br)cc1CC2 [Entry 172, N-[(2-bromophenyl)methyl]-2-[8-methyl-7-(pyrrolidine-1-carbonyl)-4,5-dihydrofuro[2,3-g]indazol-2-yl]acetamide]
1.19 | 1.657 |  | CCOC(=O)c1cccc(NC(=O)c2oc3c(c2C)-c2nn(CC)cc2CC3)c1 [Entry 173, ethyl 3-[(2-ethyl-8-methyl-4,5-dihydrofuro[2,3-g]indazole-7-carbonyl)amino]benzoate]
1.278 | 1.87 |  | Cc1ccc(Cl)cc1NC(=O)c1oc2c(c1C)-c1[nH]ncc1CC2 [Entry 174, N-(5-chloro-2-methylphenyl)-8-methyl-4,5-dihydro-1H-furo[2,3-g]indazole-7-carboxamide]
1.094 | 1.352 |  | Cc1c(C(=O)NCc2ccccc2)oc2c1-c1[nH]ncc1CC2 [Entry 175, N-benzyl-8-methyl-4,5-dihydro-1H-furo[2,3-g]indazole-7-carboxamide]
1.151 | 1.563 |  | Cc1c2c(=O)n(-c3nc4ccccc4s3)[nH]c2cc(=O)n1CCc1cnc[nH]1 [Entry 176, 5-(2-(1H-imidazol-5-yl)ethyl)-2-(benzo[d]thiazol-2-yl)-4-methyl-1,2-dihydro-3H-pyrazolo[4,3-c]pyridine-3,6(5H)-dione]
1.053 | 1.4 |  | Cc1c2c(=O)n(-c3nc4ccccc4s3)[nH]c2cc(=O)n1Cc1ccc(C(=O)O)cc1 [Entry 177, 4-[[2-(1,3-benzothiazol-2-yl)-4-methyl-3,6-dioxo-1H-pyrazolo[4,3-c]pyridin-5-yl]methyl]benzoic acid]
1.217 | 1.633 |  | COc1ccc(-c2n[nH]c3nc(-c4ccc(O)c(O)c4)cc(C(=O)O)c23)cc1 [Entry 178, 6-(3,4-dihydroxyphenyl)-3-(4-methoxyphenyl)-1H-pyrazolo[3,4-b]pyridine-4-carboxylic acid]
1.112 | 1.309 |  | COc1ccc(-c2[nH]nc3nc(-c4cc(Br)ccc4OC)cc(C(=O)O)c23)cc1 [Entry 179, 6-(5-bromo-2-methoxyphenyl)-3-(4-methoxyphenyl)-2H-pyrazolo[3,4-b]pyridine-4-carboxylic acid]
1.303 | 1.736 |  | Cc1ccc(-c2n[nH]c3nc(-c4ccc(O)c(O)c4)cc(C(=O)O)c23)cc1 [Entry 180, 6-(3,4-dihydroxyphenyl)-3-(p-tolyl)-1H-pyrazolo[3,4-b]pyridine-4-carboxylic acid]
1.124 | 1.272 |  | CCOc1cc(-c2cc(C(=O)O)c3c(-c4ccccc4)[nH]nc3n2)ccc1O [Entry 181, 6-(3-ethoxy-4-hydroxyphenyl)-3-phenyl-2H-pyrazolo[3,4-b]pyridine-4-carboxylic acid]
1.1781 | 1.35 |  | O=C(O)c1cc(-c2ccc(C(F)(F)F)cc2)nc2n[nH]c(-c3ccccc3)c12 [Entry 182, 3-phenyl-6-[4-(trifluoromethyl)phenyl]-2H-pyrazolo[3,4-b]pyridine-4-carboxylic acid]
1.152 | 1.346 |  | COc1ccc(-c2n[nH]c3nc(-c4cc(OC)c(OC)c(OC)c4)cc(C(=O)O)c23)cc1 [Entry 183, 3-(4-methoxyphenyl)-6-(3,4,5-trimethoxyphenyl)-1H-pyrazolo[3,4-b]pyridine-4-carboxylic acid]
1.245 | 1.294 |  | CCOC(=O)c1ccc(NC(=O)CCc2c(C)nc3c(c(C)nn3C)c2C)cc1 [Entry 184, ethyl 4-[3-(1,3,4,6-tetramethylpyrazolo[3,4-b]pyridin-5-yl)propanoylamino]benzoate]
1.163 | 1.531 |  | CCCCN(CCCC)CCCNC(=O)c1ccc2c(c1)sc1nc(-c3ccc(OC)cc3)cn12 [Entry 186, N-[3-(dibutylamino)propyl]-2-(4-methoxyphenyl)imidazo[2,1-b][1,3]benzothiazole-7-carboxamide]
1.108 | 1.262 |  | Cc1ccc(-c2cn3c(n2)sc2ccc(C(=O)NCCCN4CCCCCC4)cc23)cc1 [Entry 187, N-[3-(azepan-1-yl)propyl]-2-(4-methylphenyl)imidazo[2,1-b][1,3]benzothiazole-6-carboxamide]
1.089 | 1.29 |  | COC(=O)c1cnn2c(=O)cc(CS(=O)(=O)c3ccc(C)cc3C)[nH]c12 [Entry 188, Methyl 5-{[(2,4-dimethylphenyl)sulfonyl]methyl}-7-oxo-4,7-dihydropyrazolo[1,5-a]pyrimidine-3-carboxylate]
1.206 | 1.311 |  | Cc1ccc(C(=O)Nc2c(-c3ccccc3)nc3ccccn23)cc1C [Entry 189, 3,4-dimethyl-N-(2-phenylimidazo[1,2-a]pyridin-3-yl)benzamide]
1.309 | 1.482 | 1.214 | Cc1ccc(C(=O)Nc2c(-c3ccccc3)nc3ccccn23)cc1 [Entry 190, 4-methyl-N-(2-phenylimidazo[1,2-a]pyridin-3-yl)benzamide]
1.225 | 1.296 |  | O=C(Nc1c(-c2ccccc2)nc2ccccn12)c1ccc(Br)cc1 [Entry 191, 4-bromo-N-(2-phenylimidazo[1,2-a]pyridin-3-yl)benzamide]
1.106 | 1.419 |  | O=C(O)c1ccc(Nc2c(-c3cc(Br)ccc3O)nc3cnccn23)cc1 [Entry 192, 4-{[2-(5-bromo-2-hydroxyphenyl)imidazo[1,2-a]pyrazin-3-yl]amino}benzoic acid]
1.134 | 1.446 |  | O=C(O)c1cccc(Nc2c(-c3cc(Br)ccc3O)nc3cnccn23)c1 [Entry 193, 3-{[2-(5-bromo-2-hydroxyphenyl)imidazo[1,2-a]pyrazin-3-yl]amino}benzoic acid]
1.323 | 1.613 |  | COc1ccc(C2CC(=O)N3CN(C4CCCCC4)CSC3=C2C#N)cc1 (centres unmarked) [Entry 194, 3-cyclohexyl-8-(4-methoxyphenyl)-6-oxo-3,4,7,8-tetrahydro-2H,6H-pyrido[2,1-b][1,3,5]thiadiazine-9-carbonitrile]
1.072 | 1.228 |  | CC(C)c1ccc(C2CC(=O)N3CN(C4CCCCC4)CSC3=C2C#N)cc1 (centres unmarked) [Entry 195, 3-cyclohexyl-6-oxo-8-(4-propan-2-ylphenyl)-2,4,7,8-tetrahydropyrido[2,1-b][1,3,5]thiadiazine-9-carbonitrile]
1.09 | 1.326 |  | N#CC1=C2SCN(C3CCCCC3)CN2C(=O)CC1c1ccc(Br)cc1 (centres unmarked) [Entry 196, 8-(4-bromophenyl)-3-cyclohexyl-6-oxo-3,4,7,8-tetrahydro-2H,6H-pyrido[2,1-b][1,3,5]thiadiazine-9-carbonitrile]
1.142 | 1.412 |  | COc1cc(C2CC(=O)Nc3c2sc(C(=O)O)c3-c2cccc(F)c2)ccc1OCC(N)=O (centres unmarked) [Entry 197, 7-[4-(2-amino-2-oxoethoxy)-3-methoxyphenyl]-3-(3-fluorophenyl)-5-oxo-4,5,6,7-tetrahydrothieno[3,2-b]pyridine-2-carboxylic acid]
1.084 | 1.264 |  | CCOc1cc(C2CC(=O)Nc3c2sc(C(=O)O)c3-c2cccc(F)c2)ccc1OCC(N)=O (centres unmarked) [Entry 198, 7-[4-(2-amino-2-oxoethoxy)-3-ethoxyphenyl]-3-(3-fluorophenyl)-5-oxo-4,5,6,7-tetrahydrothieno[3,2-b]pyridine-2-carboxylic acid]
1.199 | 1.607 |  | COC(=O)c1c(NC(=O)c2ccccc2C(=O)O)sc2c1CCCC2 [Entry 199, 2-({[3-(methoxycarbonyl)-4,5,6,7-tetrahydro-1-benzothien-2-yl]amino}carbonyl)benzoic acid]
1.038 | 1.414 |  | CCOC(=O)c1c(NC(=O)CSc2n[nH]c3nc(=O)cc(C)n23)sc2c1CCCCC2 [Entry 200, ethyl 2-[[2-[(5-methyl-7-oxo-1H-[1,2,4]triazolo[4,3-a]pyrimidin-3-yl)sulfanyl]acetyl]amino]-5,6,7,8-tetrahydro-4H-cyclohepta[b]thiophene-3-carboxylate]
1.164 | 1.361 |  | O=C(NC1CC1)c1ccc(Cn2c(SCc3ccccc3Cl)nc3ccncc32)cc1 [Entry 202, 4-({2-[(2-chlorobenzyl)thio]-3H-imidazo[4,5-c]pyridin-3-yl]methyl)-N-cyclopropylbenzamide]

From patent US12171755B2, “PAPD5 inhibitors and methods of use thereof” (Children's Medical Center Corporation, priority 2017, dated 2024)
